Experimental data as given in publication doi:10.1101/2024.08.19.608619, “Discovery of potent SARS-CoV-2 nsp3 macrodomain inhibitors uncovers lack of translation to cellular antiviral response” (bioRxiv, 2024).
Like-named read-outs stand apart in the source and are kept apart here.

Key:
SARS-CoV-2 nsp3-mac1 [1] = target: T1, SARS-CoV-2 nsp3-mac1 (Severe acute respiratory syndrome coronavirus 2, UniProt P0DTD1); test: biochemical; set-up: SARS-CoV-2 nsp3 macrodomain TR-FRET single point, per cent inhibition, n=2
SARS-CoV-2 nsp3-mac1 [2] = target: T1, SARS-CoV-2 nsp3-mac1; test: biochemical; assay type: biochemical; details: SARS-CoV-2 nsp3 macrodomain TR-FRET single point
[3] = read-out: perc_inhibition_mean, batch_name=ASAP-0000061-002

## Cc1cccc(C)c1-n1nnnc1CSc1ncnc2[nH]cnc12 [ASAP-0000052]
SARS-CoV-2 nsp3-mac1 [1]; read-out: perc_inhibition_mean, batch_name=ASAP-0000052-001
  inhibition at 50 µM: 6.63%
SARS-CoV-2 nsp3-mac1 [2]; concentration 50.0 uM
  perc_inhibition_mean: 6.631%

## CCCNC(=O)[C@H]1CCCN(c2ncnc3[nH]ccc23)C1 [ASAP-0000053]
SARS-CoV-2 nsp3-mac1 [1]; read-out: perc_inhibition_mean, batch_name=ASAP-0000053-001
  inhibition at 50 µM: -4.36%
SARS-CoV-2 nsp3-mac1 [2]; concentration 50.0 uM
  perc_inhibition_mean: -4.36%

## c1cnc([C@@H]2CCN(c3ncnc4[nH]ccc34)C2)cn1 [ASAP-0000054]
SARS-CoV-2 nsp3-mac1 [1]; read-out: perc_inhibition_mean, batch_name=ASAP-0000054-001
  inhibition at 50 µM: -1.7%
SARS-CoV-2 nsp3-mac1 [2]; concentration 50.0 uM
  perc_inhibition_mean: -1.697%

## c1nc(N2CCC[C@@H](c3nc4c(s3)CCC4)C2)c2c[nH]nc2n1 [ASAP-0000055]
SARS-CoV-2 nsp3-mac1 [1]; read-out: perc_inhibition_mean, batch_name=ASAP-0000055-001
  inhibition at 50 µM: 3.83%
SARS-CoV-2 nsp3-mac1 [2]; concentration 50.0 uM
  perc_inhibition_mean: 3.826%

## O[C@@]1(C(F)(F)F)CCCN(c2ncnc3n[nH]cc23)CC1 [ASAP-0000057]
SARS-CoV-2 nsp3-mac1 [1]; read-out: perc_inhibition_mean, batch_name=ASAP-0000057-001
  inhibition at 50 µM: -4.14%
SARS-CoV-2 nsp3-mac1 [2]; concentration 50.0 uM
  perc_inhibition_mean: -4.139%

## CN(C)[C@@H]1CCCN(C(=O)c2cnc3c(c2)c(=O)[nH]c(=O)n3C)CC1 [ASAP-0000058]
SARS-CoV-2 nsp3-mac1 [1]; read-out: perc_inhibition_mean, batch_name=ASAP-0000058-001
  inhibition at 50 µM: -8.97%
SARS-CoV-2 nsp3-mac1 [2]; concentration 50.0 uM
  perc_inhibition_mean: -8.971%

## c1ccc(-c2n[nH]cc2CNc2cnc3[nH]ncc3c2)cc1 [ASAP-0000059]
SARS-CoV-2 nsp3-mac1 [1]; read-out: perc_inhibition_mean, batch_name=ASAP-0000059-001
  inhibition at 50 µM: -2.04%
SARS-CoV-2 nsp3-mac1 [2]; concentration 50.0 uM
  perc_inhibition_mean: -2.044%

## COc1cc(Nc2ncnc3[nH]ccc23)ccc1NC(C)=O [ASAP-0000060]
SARS-CoV-2 nsp3-mac1 [1]; read-out: perc_inhibition_mean, batch_name=ASAP-0000060-001
  inhibition at 50 µM: -7.76%
SARS-CoV-2 nsp3-mac1 [2]; concentration 50.0 uM
  perc_inhibition_mean: -7.761%

## O=C(Nc1cnc2[nH]ncc2c1)c1ccncc1Cl [ASAP-0000061]
SARS-CoV-2 nsp3-mac1 [1]; read-out: perc_inhibition_mean, batch_name=ASAP-0000061-001
  inhibition at 50 µM: -0.272%
SARS-CoV-2 nsp3-mac1 [1]; [3]
  inhibition at 50 µM: -2.75%
  inhibition at 100 µM: 2.96%
SARS-CoV-2 nsp3-mac1 [2]; concentration 50.0 uM
  perc_inhibition_mean: -0.272%
SARS-CoV-2 nsp3-mac1 [2]; concentration 50.0 uM, n=2
  perc_inhibition_mean: -2.752%
SARS-CoV-2 nsp3-mac1 [2]; concentration 100.0 uM, n=2
  perc_inhibition_mean: 2.961%

## NC(=O)[C@@H]1CCN(C(=O)c2cnc3[nH]c(=O)[nH]c(=O)c3c2)C1 [ASAP-0000062]
SARS-CoV-2 nsp3-mac1 [1]; read-out: perc_inhibition_mean, batch_name=ASAP-0000062-001
  inhibition at 50 µM: -6.32%
SARS-CoV-2 nsp3-mac1 [2]; concentration 50.0 uM
  perc_inhibition_mean: -6.322%

## Brc1ccc(-n2nnnc2Sc2ncnc3[nH]ccc23)cc1 [ASAP-0000063]
SARS-CoV-2 nsp3-mac1 [1]; read-out: perc_inhibition_mean, batch_name=ASAP-0000063-001
  inhibition at 50 µM: 12.7%
SARS-CoV-2 nsp3-mac1 [2]; concentration 50.0 uM
  perc_inhibition_mean: 12.69%

## c1ccc(-c2cc(CNc3ncnc4[nH]ccc34)on2)cc1 [ASAP-0000064]
SARS-CoV-2 nsp3-mac1 [1]; read-out: perc_inhibition_mean, batch_name=ASAP-0000064-001
  inhibition at 100 µM: -3.46%
SARS-CoV-2 nsp3-mac1 [2]; concentration 100.0 uM
  perc_inhibition_mean: -3.456%

## CC1OCCC1(O)CNC(=O)c1ncnc2[nH]ccc12 (stereo not shown) [ASAP-0000065]
SARS-CoV-2 nsp3-mac1 [1]; read-out: perc_inhibition_mean, batch_name=ASAP-0000065-001
  inhibition at 50 µM: 1.86%
SARS-CoV-2 nsp3-mac1 [2]; concentration 50.0 uM
  perc_inhibition_mean: 1.864%

## O=C(OCc1ccc(Cl)nc1)c1ncnc2[nH]ccc12 [ASAP-0000066]
SARS-CoV-2 nsp3-mac1 [1]; read-out: perc_inhibition_mean, batch_name=ASAP-0000066-001
  inhibition at 50 µM: 6.08%
SARS-CoV-2 nsp3-mac1 [2]; concentration 50.0 uM
  perc_inhibition_mean: 6.084%

## O=C(Nc1nc2ccc(F)cc2[nH]1)c1cc(N2CCNC2=O)ccc1F [ASAP-0000067]
SARS-CoV-2 nsp3-mac1 [1]; read-out: perc_inhibition_mean, batch_name=ASAP-0000067-001
  inhibition at 50 µM: -7.71%
SARS-CoV-2 nsp3-mac1 [2]; concentration 50.0 uM
  perc_inhibition_mean: -7.707%

## O=C(NCc1nc(-c2ccco2)n[nH]1)c1cc2nccn2c(=O)[nH]1 [ASAP-0000068]
SARS-CoV-2 nsp3-mac1 [1]; read-out: perc_inhibition_mean, batch_name=ASAP-0000068-001
  inhibition at 50 µM: -5.42%
SARS-CoV-2 nsp3-mac1 [2]; concentration 50.0 uM
  perc_inhibition_mean: -5.425%

## O=C(Nc1ccc(O)cc1)Nc1ccc(Oc2ccccc2)cc1 [ASAP-0000069]
SARS-CoV-2 nsp3-mac1 [1]; read-out: perc_inhibition_mean, batch_name=ASAP-0000069-001
  inhibition at 50 µM: -3.31%
SARS-CoV-2 nsp3-mac1 [2]; concentration 50.0 uM
  perc_inhibition_mean: -3.306%

## COc1nc2cc(NC(=O)c3cc(N4CCNC4=O)ccc3F)ccc2[nH]1 [ASAP-0000070]
SARS-CoV-2 nsp3-mac1 [1]; read-out: perc_inhibition_mean, batch_name=ASAP-0000070-001
  inhibition at 50 µM: -4.21%
SARS-CoV-2 nsp3-mac1 [2]; concentration 50.0 uM
  perc_inhibition_mean: -4.208%

## CC(C)OCCNC(=O)c1cc2c(=O)n3ccccc3nc2n1C [ASAP-0000071]
SARS-CoV-2 nsp3-mac1 [1]; read-out: perc_inhibition_mean, batch_name=ASAP-0000071-001
  inhibition at 50 µM: 14%
SARS-CoV-2 nsp3-mac1 [2]; concentration 50.0 uM
  perc_inhibition_mean: 14.037%

## O=C(O)[C@H]1CCCCCN1C(=O)c1ncnc2[nH]ccc12 [ASAP-0000072]
SARS-CoV-2 nsp3-mac1 [1]; read-out: perc_inhibition_mean, batch_name=ASAP-0000072-001
  inhibition at 50 µM: 11.8%
SARS-CoV-2 nsp3-mac1 [2]; concentration 50.0 uM
  perc_inhibition_mean: 11.75%

## C[C@@H](O)[C@@H]1CN(C(=O)c2ncnc3[nH]ccc23)CCO1 [ASAP-0000073]
SARS-CoV-2 nsp3-mac1 [1]; read-out: perc_inhibition_mean, batch_name=ASAP-0000073-001
  inhibition at 50 µM: -3.13%
SARS-CoV-2 nsp3-mac1 [2]; concentration 50.0 uM
  perc_inhibition_mean: -3.131%

## c1ccc(Cn2ncc3c2CCC[C@@H]3Nc2ncnc3[nH]ccc23)cc1 [ASAP-0000074]
SARS-CoV-2 nsp3-mac1 [1]; read-out: perc_inhibition_mean, batch_name=ASAP-0000074-001
  inhibition at 50 µM: 5.85%
SARS-CoV-2 nsp3-mac1 [2]; concentration 50.0 uM
  perc_inhibition_mean: 5.848%

## FC(F)(F)CO[C@@H]1CCCN(c2ncnc3[nH]ccc23)C1 [ASAP-0000075]
SARS-CoV-2 nsp3-mac1 [1]; read-out: perc_inhibition_mean, batch_name=ASAP-0000075-001
  inhibition at 50 µM: 22.2%
SARS-CoV-2 nsp3-mac1 [2]; concentration 50.0 uM
  perc_inhibition_mean: 22.218%

## C[C@@H](CO)Nc1ncnc2[nH]c(C(=O)OC(C)(C)C)cc12 [ASAP-0000076]
SARS-CoV-2 nsp3-mac1 [1]; read-out: perc_inhibition_mean, batch_name=ASAP-0000076-001
  inhibition at 50 µM: 10.7%
SARS-CoV-2 nsp3-mac1 [2]; concentration 50.0 uM
  perc_inhibition_mean: 10.712%
